The structures appear in SMILES notation. Values joined by “and” are separate entries in the source; they are usually repeats but may differ in a detail not shown here. Equal values may be shown once.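 Assay format: 96-well plates, 48-hour exposure. At the GI50, growth is halved. At the TGI there is no net growth.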

For one assay, the system named is U251 CNS. As to the kind of experiment: NCI tumour cell line growth inhibition, 48 h.
As for `OCCCCCNCc1cc2cc3c(cc2c2cc(OCc4ccccc4)ccc12)OCO3`, the GI50 is 1.65 µM and the TGI is 3.01 µM.

A further assay deals with HT29 colon. Put plainly: NCI tumour cell line growth inhibition, 48 h.
`CCOC(=O)c1cc2nc3ccccc3c(=O)n2c2ccccc12`: the TGI was more than 10 µM.
As to `COc1cc2c(c(OC)c1OC)-c1ccc(OC)c(=O)cc1C(NC(=O)c1ccc(N=[N+]=[N-])cc1)CC2` (configuration not stated), the TGI stood at 0.208 µM.
`Cc1ccc(S(=O)(=O)Nc2ccccc2C(=O)c2ccc(C)c(C)c2)cc1`: the TGI is more than 100 µM.
The same measure, in the same setting: under `COc1c(Cl)c(=O)oc2ccc(Cl)cc12` stands more than 100 µM; under `NS(=O)(=O)c1cc(Br)c(N=Nc2ccc(O)c3ncccc23)c(Br)c1`, more than 100 µM.
As to `COc1ccc([C@H]2[C@@H](F)C(=O)N2c2cc(OC)c(OC)c(OC)c2)cc1F`, the GI50 is 0.134 µM and the TGI was more than 100 µM.
Regarding `Cc1cc(I)cc(CN(C)CCCN2CCCCC2)c1O`, the GI50 was 4.46 µM and the TGI was determined as 16.1 µM.
For the molecule `CN(C(=O)c1ccc(C(F)(F)F)cc1)c1ccc(Oc2ccc3c(c2)cc(C(=O)N2CCN(Cc4ccc(OC(F)F)cc4)CC2)n3C)nc1`, the GI50 was 33.2 µM and the TGI is more than 100 µM.
In the case of `CCCCCCCCC/C=C1\CCC(CN2CCOCC2)C1=O` (configuration not stated), the TGI is 8.7 µM.
Same read-out and setting: in the case of `O=S(=O)(CCn1c(Sc2ccccc2)c(Sc2ccccc2)c2ccccc21)c1ccccc1` it was more than 100 µM.
Molecule `O=c1[nH]c(Nc2nc3ccccc3[nH]2)nc(O)c1-c1ccccc1` had a TGI of more than 100 µM.
Turning to `Cc1ccccc1S(=O)(=O)OC1NS(=O)(=O)c2ccccc21` (configuration not stated), the TGI was more than 100 µM.
For `O=C(/C=C/c1ccncc1)c1cc(Cl)ccc1O`, the GI50 is 14.1 µM and the TGI was 29.7 µM.
Turning to `OCC#Cc1ccccc1C#Cc1ccccc1`, the GI50 was 23.6 µM and the TGI was 97.6 µM.
Take `CN(C)CCSC1=Nc2ccc(Cl)cc2C(c2ccccc2Cl)=NC1`: the GI50 was 15 µM and 40.6 µM; the TGI was 35.4 µM and > 100 µM.
Molecule `Cc1cc(-c2ccc3nc(C4CCOCC4)n(CCOC(F)(F)F)c3c2)cn(C)c1=O` gave a TGI of more than 63.1 µM.
On to `ClCc1cccc(Cn2cnc3ncnc(Cl)c32)c1`, for which the GI50 was 2.89 µM and the TGI is more than 100 µM.
For the molecule `COc1cc2c3c(n(C)c(=O)c2cc1OC)-c1cc2c(cc1/C3=C\CCCN)OCO2`, the GI50 is 4.57 µM and the TGI was more than 100 µM.
For the molecule `OCCCCCNCc1cc2cc3c(cc2c2cc(OCc4ccccc4)ccc12)OCO3`, the GI50 is 1.5 µM and the TGI worked out at 3 µM.
Turning to `COc1cc(/C=C2\CN(S(=O)(=O)c3ccccc3)C/C(=C\c3cc(CN4CCCC4)c(O)c(OC)c3)C2=O)cc(CN2CCCC2)c1O`, the GI50 was 0.252 µM and the TGI was found to be 1.65 µM.

The test system of another assay is OVCAR-8 ovarian. As to the kind of experiment: NCI tumour cell line growth inhibition, 48 h.
Regarding `CCOC(=O)c1cc2nc3ccccc3c(=O)n2c2ccccc12`, the TGI was more than 10 µM.
`COc1cc2c(c(OC)c1OC)-c1ccc(OC)c(=O)cc1C(NC(=O)c1ccc(N=[N+]=[N-])cc1)CC2` (configuration not stated) returned a TGI of 1.02 µM.
`Cc1ccc(S(=O)(=O)Nc2ccccc2C(=O)c2ccc(C)c(C)c2)cc1`: the TGI was more than 100 µM.
`COc1c(Cl)c(=O)oc2ccc(Cl)cc12`: the TGI is more than 100 µM.
`NS(=O)(=O)c1cc(Br)c(N=Nc2ccc(O)c3ncccc23)c(Br)c1` registered a TGI of more than 100 µM.
As for `COc1ccc([C@H]2[C@@H](F)C(=O)N2c2cc(OC)c(OC)c(OC)c2)cc1F`, the GI50 is 0.368 µM and the TGI was more than 100 µM.
With `Cc1cc(I)cc(CN(C)CCCN2CCCCC2)c1O`, the GI50 is 26.9 µM and the TGI was more than 100 µM.
With `CN(C(=O)c1ccc(C(F)(F)F)cc1)c1ccc(Oc2ccc3c(c2)cc(C(=O)N2CCN(Cc4ccc(OC(F)F)cc4)CC2)n3C)nc1`, the GI50 is 1.71 µM and the TGI is more than 100 µM.
The molecule `CCCCCCCCC/C=C1\CCC(CN2CCOCC2)C1=O` (configuration not stated) returned a TGI of 3.13 µM.
`O=S(=O)(CCn1c(Sc2ccccc2)c(Sc2ccccc2)c2ccccc21)c1ccccc1` registered a TGI of more than 100 µM.
Turning to `O=c1[nH]c(Nc2nc3ccccc3[nH]2)nc(O)c1-c1ccccc1`, the TGI was more than 100 µM.
As to `Cc1ccccc1S(=O)(=O)OC1NS(=O)(=O)c2ccccc21` (configuration not stated), the TGI was more than 100 µM.
`O=C(/C=C/c1ccncc1)c1cc(Cl)ccc1O`: the GI50 is 23.6 µM and the TGI was 57 µM.
For `OCC#Cc1ccccc1C#Cc1ccccc1`, the GI50 was 19.6 µM and the TGI turned out to be 40.6 µM.
Regarding `CN(C)CCSC1=Nc2ccc(Cl)cc2C(c2ccccc2Cl)=NC1`, the GI50 was 6.63 µM and 43.5 µM; the TGI is 20.2 µM and > 100 µM.
Take `Cc1cc(-c2ccc3nc(C4CCOCC4)n(CCOC(F)(F)F)c3c2)cn(C)c1=O`: the GI50 is 0.952 µM.
Consider `ClCc1cccc(Cn2cnc3ncnc(Cl)c32)c1`, for which the GI50 was 3.1 µM and the TGI is 14.9 µM.
Consider `COc1cc2c3c(n(C)c(=O)c2cc1OC)-c1cc2c(cc1/C3=C\CCCN)OCO2`, for which the GI50 was 10.1 µM and the TGI worked out at 22.4 µM.
Regarding `OCCCCCNCc1cc2cc3c(cc2c2cc(OCc4ccccc4)ccc12)OCO3`, the GI50 was 1.48 µM and the TGI was 2.8 µM.
Turning to `COc1cc(/C=C2\CN(S(=O)(=O)c3ccccc3)C/C(=C\c3cc(CN4CCCC4)c(O)c(OC)c3)C2=O)cc(CN2CCCC2)c1O`, the GI50 is 1.31 µM and the TGI was more than 100 µM.

The test system of another assay is HS 578T breast. As to the kind of experiment: NCI tumour cell line growth inhibition, 48 h.
In turn, `CCOC(=O)c1cc2nc3ccccc3c(=O)n2c2ccccc12` yielded a TGI of more than 10 µM.
In the case of `COc1cc2c(c(OC)c1OC)-c1ccc(OC)c(=O)cc1C(NC(=O)c1ccc(N=[N+]=[N-])cc1)CC2` (configuration not stated), the TGI was more than 100 µM.
Take `Cc1ccc(S(=O)(=O)Nc2ccccc2C(=O)c2ccc(C)c(C)c2)cc1`: the TGI was more than 100 µM.
With `COc1c(Cl)c(=O)oc2ccc(Cl)cc12`, the TGI was more than 100 µM.
`NS(=O)(=O)c1cc(Br)c(N=Nc2ccc(O)c3ncccc23)c(Br)c1`: the TGI amounted to 78.5 µM.

Source of the values: PubChem BioAssay (NCI).
